Structures are written as SMILES.

Two compounds from US20260259169A1, “BETA-LACTAMASE SUBSTRATE COMPOUNDS AND ELECTROCHEMICAL DETECTION METHODS USING THEM” (priority 2023, published 2026) can be followed below.

Assay [1] deals with VIM-13. Put plainly: Reactivity with recombinant enzyme, amperometric. Format: biochemical. The settings on record: class B metallo-beta-lactamase, protein; CF3 compound 2.4 mM, HMRZ-86 1.2 mM; 10 minutes at 37° C.
The subject of assay [2] is IMP-3. Put plainly: Reactivity with recombinant enzyme, amperometric. The settings on record: class B metallo-beta-lactamase, protein; CF3 compound 2.4 mM, HMRZ-86 1.2 mM; 10 minutes at 37° C. Format: biochemical.
Assay [3] has as its system bacteria strains producing the carbapenemase KPC type. Put plainly: Amperometric detection in blood culture. The conditions noted are these: CF3 6.0 mM, HMRZ-86 1.2 mM. The class given is cell-based. As to the method: (§1) The beta-lactamase with group β being CF3 (6.0 mM), as well as the reference HMRZ-86 (1.2 mM) were also tested with blood cultures comprising bacteria strains producing the carbapenemase KPC type, the metallo-beta-lactamase VIM type and the metallo-beta-lactamase NDM type, as well as a blood culture comprising no bacteria strains producing beta-lactamases (negative control ATCC).

The test system of assay [4] is CTXM. Put plainly: Amperometric detection of beta-lactamase type producing bacteria strains. Format: cell-based. The settings on record: 6.0 mM substrate, HMRZ-86 1.2 mM; qualitative. As to the method:
(§2) The possibility to detect different beta-lactamase type producing bacteria strains was also tested. As reference, a reference medium comprising 1.2 mM beta-lactamase substrate compound HMRZ-86 was prepared as well.

Assay [5] concerns OXA-40. Described as above. The conditions noted are these: 6.0 mM substrate, HMRZ-86 1.2 mM; qualitative. The class given is cell-based. As to the method: as §2
Assay [6] relates to OXA-48. Described as above. The class given is cell-based. The settings on record: 6.0 mM substrate, HMRZ-86 1.2 mM; qualitative. As to the method: as §2
Assay [7] concerns OXA-58. The assay is described as above. The conditions noted are these: 6.0 mM substrate, HMRZ-86 1.2 mM; qualitative. Format: cell-based. As to the method:
as §2

Assay [8] has as its system IMP-16. Put plainly: Reactivity with recombinant enzyme, amperometric. The class given is biochemical. The settings on record: class B metallo-beta-lactamase, protein; CF3 compound 2.4 mM, HMRZ-86 1.2 mM; 10 minutes at 37° C.
Assay [9] deals with CTX-M-25 (Escherichia coli, UniProt Q8KSA6). Put plainly: Reactivity with recombinant enzyme, amperometric. Format: biochemical. The conditions noted are these: class A ESBL, protein; CF3 compound 2.4 mM, HMRZ-86 1.2 mM; 10 minutes at 37° C.
Assay [10] concerns AmpC positive clinical strains. Put plainly: Reactivity with AmpC positive clinical strains, amperometric. The class given is cell-based, 11 different species. The conditions noted are these: 30 strains, colonies in TPTZ buffer, 10 minutes at 37° C. As to the method:
The reactivities of HMRZ-86 and the CF3 (β)/4-cyanophenyl (R) [formula (I)] compounds for enzymes from Ambler classes C (AmpC cephalosporinases) were analyzed with AmpC positive clinical strains previously characterized by sequencing. These strains correspond to 11 different species, 24 different enzymes and 2 mechanisms of enzyme production [HCASE (hyperproductive) and CASEP (plasmid mediated (See Table 2) Table 2 represents the list of AmpC (Ambler class C cephalosporinases) positive clinical strains tested with the HMRZ-86 and the CF3 (β)/4-cyanophenyl (R) [formula (I)] compounds.
Colonies from 30 AmpC positive clinical strains collected from solid culture medium were diluted in a standard TPTZ buffer. […] A negative clinical strain and an positive one (CTX-M) were analyzed as […].

Assay [11] addresses IMP-1 (Serratia marcescens, UniProt P52699). Put plainly: Reactivity with recombinant enzyme, amperometric. Format: biochemical. The conditions noted are these: class B metallo-beta-lactamase, protein; CF3 compound 2.4 mM, HMRZ-86 1.2 mM; 10 minutes at 37° C.
Assay [12] has as its system IMP-61. Put plainly: Reactivity with recombinant enzyme, amperometric. Format: biochemical. The settings on record: class B metallo-beta-lactamase, protein; CF3 compound 2.4 mM, HMRZ-86 1.2 mM; 10 minutes at 37° C.
In assay [13] the target is KPC (Klebsiella pneumoniae, UniProt Q9F663). Put plainly: Amperometric measurement of oxidation current with KPC in TPTZ buffer. Format: biochemical. The settings on record: 30 minutes at 37° C. As to the method: A medium comprising 1.2 mM of substrate in a succinate buffer of pH 5.5 was prepared for each of the 8 beta-lactamase substrate compounds (7 inventive ones and the HMRZ-86 reference one).
4 different samples to be analyzed were prepared, each comprising KPC as beta-lactamase in a standard 2,4,6-tri-2-pyridinyl-1,3,5-triazine (TPTZ) buffer but in different concentrations: 239.4, 59.85, 9.975 and 4.985 ng/ml (ng of KPC per mL of TPTZ buffer). The two first concentrations of KPC aim to determine the capacity of the derivative to detect the presence of beta-lactamase whereas the two lowest concentrations aim to address the limit of detection.
Each of the […] (in other words 32 combinations) and incubated for 30 minutes at 37° C. Next, an amperometric measurement was performed on all 32 of the incubated mediums, and the oxidation current was determined. The device used was a Metrohm Dropsens and the electrodes were Metrohm Dropsens SCPE 110 electrodes. The oxidation current is the maximum current value measured between 0.1 V and 0.5 V vs. Ag/AgCl.
To test the impact of the concentration of the beta-lactamase substrate compound on the possibility to detect beta-lactamases, a further medium comprising 2.4 mM of the beta-lactamase substrate compound with R being 2-nitro-4-cyanophenyl was prepared. […] The same four beta-lactamase concentrations as in Example 1 were tested (i.e. the same samples). The incubation and measurement were performed as in Example 1.
A medium comprising 6.0 mM of each substrate in a succinate buffer of pH 5.5 was prepared. 2 different samples to be analyzed were prepared, each comprising KPC as beta-lactamase type in a standard 2,4,6-tri-2-pyridinyl-1,3,5-triazine (TPTZ) buffer, but in different concentrations: 239.4 ng/ml and 59.85 ng/ml, respectively (ng of KPC per mL of TPTZ buffer). Each of the […] was added to each of the 2 mediums (in other words 6 combinations) and incubated for 30 minutes at 37° C. Next, an amperometric measurement was performed on all 6 of the incubated mediums, and the oxidation current was determined. The equipment used was the same as that of Example 1.

The test system of assay [14] is IMP-14. Put plainly: Reactivity with recombinant enzyme, amperometric. Format: biochemical. The conditions noted are these: class B metallo-beta-lactamase, protein; CF3 compound 2.4 mM, HMRZ-86 1.2 mM; 10 minutes at 37° C.
In assay [15] the test system is bacteria strains that produce NDM. Put plainly: Amperometric detection in blood culture. The class given is cell-based. The conditions noted are these: CF3 6.0 mM, HMRZ-86 1.2 mM. As to the method:
(§3) The possibility of the beta-lactamase substrate compounds to detect bacteria strains producing different beta-lactamases was tested for the reference HMRZ-86 of example 1 (at 1.2 mM) and the beta-lactamase substrate compound with R being 2-nitro-4-cyano of Example 1 (at 2.4 mM). […] Consequently, amperometric voltammetry of the negative control with ATCC should give an oxidation current of 0 nA for the measurement to be valid.
as §1

Assay [16] has as its system bacteria strains that produce VIM type. Put plainly: Amperometric detection in blood culture. The class given is cell-based. The conditions noted are these: CF3 6.0 mM, HMRZ-86 1.2 mM. As to the method: as §3, §1

Turning to `N#Cc1ccc(C=CC2=C(C(=O)O)N3C(=O)C(NC(=O)C(F)(F)F)C3SC2)cc1` (stereo not shown) [CF3], the “reactivity (detection)” value in assay [1], in assay [2], in assay [8], in [9], in [11] and in assay [12] was “Detected” in each case. For the same compound, the “reactivity (detection)” value in assay [14] is listed as “Detected”. Moreover, the “detection (oxidation current)” value is “capable of detecting” in [3]; “capable of detecting” in assay [4]; “capable of detecting” in assay [5]; “capable of detecting” in assay [6]; “capable of detecting” in assay [7]; “do not detect” in [15]. Moreover, the “detection (oxidation current)” value in assay [16] is recorded as “capable of detecting”. Also, the “AmpC positive clinical strains detected as positive” value in assay [10] (substrate 2.4 mM) is recorded as “All”. Besides, the “detection of the lowest tested concentration of KPC” value in assay [13] (6.0 mM substrate, KPC 59.85 ng/ml) is “capable to detect”. Also, the “detection of the highest concentration of KPC” value in assay [13] (6.0 mM substrate, KPC 239.4 ng/ml) is “capable to detect”.
For `CC(C)(ON=C(C(=O)N[C@@H]1C(=O)N2C(C(=O)O)=C(C=Cc3ccc([N+](=O)[O-])cc3[N+](=O)[O-])CS[C@H]12)c1csc(N)n1)C(=O)O.O=C(O)C(F)(F)F` [HMRZ-86, reference compound], the “reactivity (detection)” value in [1], in assay [2], in assay [8], in assay [9], in [11] and in assay [12] was “Detected” each time. Further, the “reactivity (detection)” value in [14] is reported as “Detected”. Further, the “detection (oxidation current)” value in assay [3] is “capable of detecting”; in assay [4], “capable of detecting”; in assay [5] it was “does not detect”; in assay [6] it was “capable of detecting”; in assay [7], “does not detect”; in assay [15], “do not detect”. Also, in [16], the “detection (oxidation current)” value is reported as “capable of detecting”. The “AmpC positive clinical strains detected as positive” value in assay [10] (HMRZ-86 1.2 mM) turned out to be 53.3%. Also, the “detection of the beta-lactamases (oxidation current): KPC concentrations detected” value in assay [13] (1.2 mM substrate, succinate buffer pH 5.5, KPC 239.4, 59.85, 9.975 and 4.985 ng/ml) is listed as “all 4 concentrations”. Further, the “detection of the beta-lactamase concentration of 9.975 ng/mL” value in [13] (1.2 mM substrate, KPC 9.975 ng/mL) is “could detect”.
